According to US9365566B2 (Takeda Pharmaceutical Company Limited, priority 2012, dated 2016):

Molecular target: T1, human BTK (Homo sapiens, UniProt Q06187)
T1 construct: GST (Glutathione-S-Transferase) (cleaved yes); made in house; host or cells: Spodoptera frugiperda Sf9 cells (baculovirus, Bac-to-Bac)
Experiment: BTK inhibition assay: BTK-mediated phosphorylation of FAM-labeled substrate 5-FAM-EEPLYWSFPAKKK-NH2 (Caliper LC-3000)
Format: biochemical
Conditions: pIC50 = -log(IC50), IC50 molar; residues 382 to 659 of human BTK; incubated at room temperature for 60 minutes; larger values represent higher potency
From the text: The activity of compounds as BTK inhibitors may be determined by a variety of methods, including in vitro and in vivo methods.
This construct engineers an in-frame translational fusion with the Glutathione-S-Transferase (GST) protein for use in affinity purification. The fusion protein derived from this construct contains a protease recognition sequence to liberate the BTK from the GST affinity tag. High-titer baculoviral stocks, generated using the Bac-to-Bac® system (Invitrogen), are used to express the recombinant protein in Spodoptera frugiperda Sf9 cells in 10 L Wave bags. Recombinant proteins are isolated from cellular extracts by passage over Glutathione Sepharose 4B (GE Healthcare) and the BTK moiety is released from the GST affinity tag by treatment with PreScission protease. The BTK recombinant protein is further purified by size exclusion chromatography (HiLoad 16/60 Superdex 200, GE Healthcare) in a buffer containing 20 mM Hepes (pH 7.4), 50 mM NaCl, 10 mM MgCl2, 0.25 mM TCEP and 0.1 mM EDTA. The purity of the fractions is assessed by SDS PAGE and the peak protein fractions are pooled and concentrated using Amicon Ultra-15 Centrifugal Filter Devices (Millipore).
The inhibitory properties of compounds relative to BTK is determined using a black 384-well-plate format in a buffer which contains 50 mM Hepes, 10 mM NaCl, 10 mM MgCl2, 0.2 mM EDTA, 0.01% Brij35®, 1 mM DTT, and 0.1 mg/mL BSA at pH 7.3. The test compound is prepared in DMSO using 2-fold serial dilutions for 11 data points, which are added to the buffer so that each dilution contains 3% DMSO. […] The reaction mixtures are incubated at room temperature for 60 minutes and then quenched by adding 25 μL of 50 mM EDTA. To quantify the fluorescent-labeled substrate and product following reaction, the test plate is loaded on a Caliper LC-3000, which measures percent of conversion by microfluidic-based separation.
The compounds were tested in accordance with the assay described on page 34 of the specification.

T1 sequence (Q06187 382-659): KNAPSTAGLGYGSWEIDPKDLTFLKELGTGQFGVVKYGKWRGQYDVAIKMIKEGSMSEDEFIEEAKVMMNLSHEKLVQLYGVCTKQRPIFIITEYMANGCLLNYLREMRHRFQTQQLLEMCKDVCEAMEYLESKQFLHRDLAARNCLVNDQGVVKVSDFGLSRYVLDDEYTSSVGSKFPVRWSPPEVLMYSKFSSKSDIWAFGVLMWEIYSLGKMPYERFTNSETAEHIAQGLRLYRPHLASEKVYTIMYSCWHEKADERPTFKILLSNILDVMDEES

Row | SMILES | IC50
1 | Cn1ccc2cc(-c3cccc4c(N)c(C(N)=O)nnc34)ccc21 [Example 5, 4-amino-8-(1-methyl-1H-indol-5-yl)cinnoline-3-carboxamide] | 3980 nM
2 | NC(=O)c1nnc2c(-c3cc(F)c4c(c3)CC(=O)N4)cccc2c1N [Example 6, 4-amino-8-(7-fluoro-2-oxoindolin-5-yl)cinnoline-3-carboxamide] | 3160 nM
3 | NC(=O)c1nnc2c(-c3ccc4c(c3)CC(=O)N4)cccc2c1N [Example 8, 4-amino-8-(2-oxoindolin-5-yl)cinnoline-3-carboxamide] | 1260 nM
4 | Cn1cc2cc(-c3cccc4c(N)c(C(N)=O)nnc34)ccc2n1 [Example 11, 4-amino-8-(2-methyl-2H-indazol-5-yl)cinnoline-3-carboxamide] | 1000 nM
5 | Cn1cnc2cc(-c3cccc4c(N)c(C(N)=O)nnc34)ccc21 [Example 12, 4-amino-8-(1-methyl-1H-benzo[d]imidazol-5-yl)cinnoline-3-carboxamide] | 15800 nM
6 | NC(=O)c1nnc2c(-c3ccc4[nH]c(=O)[nH]c4c3)cccc2c1N [Example 14, 4-amino-8-(2-oxo-2,3-dihydro-1H-benzo[d]imidazol-5-yl)cinnoline-3-carboxamide] | 631 nM
7 | NC(=O)c1nnc2c(-c3ccc4c(c3)ncn4C3CCCCC3)cccc2c1N [Example 18, 4-amino-8-(1-cyclohexyl-1H-benzo[d]imidazol-5-yl)cinnoline-3-carboxamide] | 1260 nM
8 | Cc1ccc2c(N)c(C(N)=O)nnc2c1-c1cnc2cc[nH]c2c1 [Example 21, 4-amino-7-methyl-8-(1H-pyrrolo[3,2-b]pyridin-6-yl)cinnoline-3-carboxamide] | 126 nM
9 | Cc1ccc2c(N)c(C(N)=O)nnc2c1-c1ccc2[nH]ccc2c1 [Example 24, 4-amino-8-(1H-indol-5-yl)-7-methylcinnoline-3-carboxamide] | 251 nM
10 | Cc1ccc2c(N)c(C(N)=O)nnc2c1-c1ccc2c(cnn2C)c1 [Example 25, 4-amino-7-methyl-8-(1-methyl-1H-indazol-5-yl)cinnoline-3-carboxamide] | 31.6 nM
11 | Cc1c(-c2cccc3c(N)c(C(N)=O)nnc23)ccc2c1cnn2C [Example 30, 4-amino-8-(1,4-dimethyl-1H-indazol-5-yl)cinnoline-3-carboxamide] | 316 nM
12 | Cc1c(-c2cccc3c(N)c(C(N)=O)nnc23)ccc2[nH]ncc12 [Example 31, 4-amino-8-(4-methyl-1H-indazol-5-yl)cinnoline-3-carboxamide] | 39.8 nM
13 | Cc1ccc2c(N)c(C(N)=O)nnc2c1-c1cc(C)c2c(cnn2C)c1 [Example 32, 4-amino-8-(1,7-dimethyl-1H-indazol-5-yl)-7-methylcinnoline-3-carboxamide] | 50.1 nM
14 | Cc1ccc2c(N)c(C(N)=O)nnc2c1-c1cc(C)c2[nH]ncc2c1 [Example 33, 4-amino-7-methyl-8-(7-methyl-1H-indazol-5-yl)cinnoline-3-carboxamide] | 50.1 nM
15 | Cn1ncc2cc(-c3c(C(F)(F)F)ccc4c(N)c(C(N)=O)nnc34)ccc21 [Example 35, 4-amino-8-(1-methyl-1H-indazol-5-yl)-7-(trifluoromethyl)cinnoline-3-carboxamide] | 79.4 nM
16 | Cc1ccc2c(N)c(C(N)=O)nnc2c1-c1ccc2c(c1)c(C)nn2C [Example 36, 4-amino-8-(1,3-dimethyl-1H-indazol-5-yl)-7-methylcinnoline-3-carboxamide] | 501 nM
17 | COc1ccc(-c2cc3[nH]ncc3cc2C)c2nnc(C(N)=O)c(N)c12 [Example 39, 4-amino-5-methoxy-8-(5-methyl-1H-indazol-6-yl)cinnoline-3-carboxamide] | 7.94 nM
18 | COc1cc(C)c(-c2ccc3cn[nH]c3c2)c2nnc(C(N)=O)c(N)c12 [Example 42, 4-amino-8-(1H-indazol-6-yl)-5-methoxy-7-methylcinnoline-3-carboxamide] | 10 nM

Continued by falling IC50, values first:

Row | IC50 | SMILES
19 | 50100 nM | CC(C)n1cnc2cc(-c3cccc4c(N)c(C(N)=O)nnc34)ccc21 [Example 17, 4-amino-8-(1-isopropyl-1H-benzo[d]imidazol-5-yl)cinnoline-3-carboxamide]
20 | 39800 nM | Cn1cnc2cc(-c3cccc4c(N)c(C(N)=O)nnc34)cnc21 [Example 13, 4-amino-8-(3-methyl-3H-imidazo[4,5-b]pyridin-6-yl)cinnoline-3-carboxamide]
21 | 39800 nM | NC(=O)c1nnc2c(-c3ccc4c(c3)NC(=O)C4)cccc2c1N [Example 20, 4-amino-8-(2-oxoindolin-6-yl)cinnoline-3-carboxamide]
22 | 15800 nM | CC(C)(C)n1cnc2cc(-c3cccc4c(N)c(C(N)=O)nnc34)ccc21 [Example 19, 4-amino-8-(1-tert-butyl-1H-benzo[d]imidazol-5-yl)cinnoline-3-carboxamide]
23 | 5010 nM | CN1CCc2cc(-c3cccc4c(N)c(C(N)=O)nnc34)ccc21 [Example 7, 4-amino-8-(1-methylindolin-5-yl)cinnoline-3-carboxamide]
24 | 3980 nM | Cc1nn(C)c2ccc(-c3cccc4c(N)c(C(N)=O)nnc34)cc12 [Example 37, 4-amino-8-(1,3-dimethyl-1H-indazol-5-yl)cinnoline-3-carboxamide]
25 | 1580 nM | Cn1ncc2ccc(-c3cccc4c(N)c(C(N)=O)nnc34)cc21 [Example 1, 4-amino-8-(1-methyl-1H-indazol-6-yl)cinnoline-3-carboxam]
26 | 1580 nM | NC(=O)c1nnc2c(-c3ccc4[nH]ccc4c3)cccc2c1N [Example 27, 4-amino-8-(1H-indol-5-yl)cinnoline-3-carboxamide]
27 | 1580 nM | Cn1ncc2cc(-c3cc(C(F)(F)F)cc4c(N)c(C(N)=O)nnc34)ccc21 [Example 34, 4-amino-8-(1-methyl-1H-indazol-5-yl)-6-(trifluoromethyl)cinnoline-3-carboxamide]
28 | 1000 nM | Cn1ccc2ccc(-c3cccc4c(N)c(C(N)=O)nnc34)cc21 [Example 9, 4-amino-8-(1-methyl-1H-indol-6-yl)cinnoline-3-carboxamide]
29 | 794 nM | Cc1nc2ccc(-c3cccc4c(N)c(C(N)=O)nnc34)cc2[nH]1 [Example 16, 4-amino-8-(2-methyl-1H-benzo[d]imidazol-6-yl)cinnoline-3-carboxamide]
30 | 631 nM | NC(=O)c1nnc2c(-c3ccc4nccn4c3)cccc2c1N [Example 10, 4-amino-8-(imidazo[1,2-a]pyridin-6-yl)cinnoline-3-carboxamide]
31 | 501 nM | Cc1cc2cnn(C)c2cc1-c1cccc2c(N)c(C(N)=O)nnc12 [Example 44, 4-amino-8-(1,5-dimethyl-1H-indazol-6-yl)cinnoline-3-carboxamide]
32 | 316 nM | NC(=O)c1nnc2c(-c3cnc4cc[nH]c4c3)cccc2c1N [Example 3, 4-amino-8-(1H-pyrrolo[3,2-b]pyridin-6-yl)cinnoline-3-carboxamide]
33 | 158 nM | Cn1ncc2cc(-c3cccc4c(N)c(C(N)=O)nnc34)ccc21 [Example 2, 4-amino-8-(1-methyl-1H-indazol-5-yl)cinnoline-3-carboxamide]
34 | 158 nM | Cc1ccc2c(N)c(C(N)=O)nnc2c1-c1ccc2cc[nH]c2c1 [Example 26, 4-amino-8-(1H-indol-6-yl)-7-methylcinnoline-3-carboxamide]
35 | 79.4 nM | NC(=O)c1nnc2c(-c3ccc4nc[nH]c4c3)cccc2c1N [Example 4, 4-amino-8-(1H-benzo[d]imidazol-6-yl)cinnoline-3-carboxamide]
36 | 50.1 nM | Cc1ccc2c(N)c(C(N)=O)nnc2c1-c1ccc2ncn(C)c2c1 [Example 23, 4-amino-7-methyl-8-(1-methyl-1H-benzo[d]imidazol-6-yl)cinnoline-3-carboxamide]
37 | 39.8 nM | COc1ccc(-c2ccc3cn[nH]c3c2)c2nnc(C(N)=O)c(N)c12 [Example 38, 4-amino-8-(1H-indazol-6-yl)-5-methoxycinnoline-3-carboxamide]
38 | 25.1 nM | COc1ccc2c(N)c(C(N)=O)nnc2c1-c1ccc2cn[nH]c2c1 [Example 41, 4-amino-8-(1H-indazol-6-yl)-7-methoxycinnoline-3-carboxamide]
39 | 15.8 nM | Cc1ccc2c(N)c(C(N)=O)nnc2c1-c1ccc2nc[nH]c2c1 [Example 22, 4-amino-8-(1H-benzo[d]imidazol-6-yl)-7-methylcinnoline-3-carboxamide]
40 | 7.94 nM | Cc1ccc2c(N)c(C(N)=O)nnc2c1-c1ccc2cn[nH]c2c1 [Example 28, 4-amino-8-(1H-indazol-6-yl)-7-methylcinnoline-3-carboxamide]
41 | 6.31 nM | Cc1cc2cn[nH]c2cc1-c1ccc(F)c2c(N)c(C(N)=O)nnc12 [Example 43, 4-amino-5-fluoro-8-(5-methyl-1H-indazol-6-yl)cinnoline-3-carboxamide]
